Source: ChEMBL document CHEMBL1201862, “PubChem BioAssay data set” (2004)
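These data come from cells grown in 96-well plates and exposed to compound for 48 hours at five concentrations. GI50: concentration for 50% inhibition of growth.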 Activity calls are given as the source filed them. Cut-off read from the data, not from the text of the source: active = GI50 up to about 1.1 µM and inactive = higher.

Assays:
Assay in all cases: growth of human tumour cells (NCI), 48 h
MCF7 = test system: MCF7
Malme-3M = test system: Malme-3M
HCT-116 = test system: HCT-116
SK-MEL-2 = test system: SK-MEL-2
MDA-N = test system: MDA-N
OVCAR-4 = test system: OVCAR-4
DU-145 = test system: DU-145
SF-268 = test system: SF-268
RPMI-8226 = test system: RPMI-8226
NCI/ADR-RES = test system: NCI/ADR-RES
OVCAR-5 = test system: OVCAR-5
KM12 = test system: KM12
MDA-MB-435 = test system: MDA-MB-435
786-0 = test system: 786-0
SK-MEL-28 = test system: SK-MEL-28
NCI-H226 = test system: NCI-H226
PC-3 = test system: PC-3
NCI-H460 = test system: NCI-H460
HOP-62 = test system: HOP-62
NCI-H522 = test system: NCI-H522
HOP-92 = test system: HOP-92
U-251 = test system: U-251
A549 = test system: A549
SW-620 = test system: SW-620
ACHN = test system: ACHN
UO-31 = test system: UO-31
SNB-75 = test system: SNB-75
T47D = test system: T47D
UACC-257 = test system: UACC-257
A498 = test system: A498
OVCAR-8 = test system: OVCAR-8
LOX IMVI = test system: LOX IMVI
SF-295 = test system: SF-295
IGROV-1 = test system: IGROV-1
RXF 393 = test system: RXF 393
M14 = test system: M14
SK-OV-3 = test system: SK-OV-3
MOLT-4 = test system: MOLT-4
SNB-19 = test system: SNB-19
CAKI-1 = test system: CAKI-1
OVCAR-3 = test system: OVCAR-3
SF-539 = test system: SF-539
Hs-578T = test system: Hs-578T
SK-MEL-5 = test system: SK-MEL-5
MDA-MB-231 = test system: MDA-MB-231
NCI-H23 = test system: NCI-H23
EKVX = test system: EKVX
K562 = test system: K562
SN12C = test system: SN12C
HT-29 = test system: HT-29
TK-10 = test system: TK-10
COLO 205 = test system: COLO 205
HCT-15 = test system: HCT-15
UACC-62 = test system: UACC-62
BT-549 = test system: BT-549
CCRF-CEM = test system: CCRF-CEM
HCC 2998 = test system: HCC 2998
HL-60 = test system: HL-60

## CC(C)NCCC(O)c1cc2ccccc2o1 (stereo not drawn)
MCF7
  GI50: > 100 µM (inactive)
Malme-3M
  GI50: > 100 µM (inactive)
HCT-116
  GI50: > 100 µM (inactive)
SK-MEL-2
  GI50: > 100 µM (inactive)
MDA-N
  GI50: > 100 µM (inactive)
OVCAR-4
  GI50: > 100 µM (inactive)
DU-145
  GI50: > 100 µM (inactive)
SF-268
  GI50: > 100 µM (inactive)
RPMI-8226
  GI50: > 100 µM (inactive)
NCI/ADR-RES
  GI50: > 100 µM (inactive)
OVCAR-5
  GI50: > 100 µM (inactive)
KM12
  GI50: > 100 µM (inactive)
MDA-MB-435
  GI50: > 100 µM (inactive)
786-0
  GI50: > 100 µM (inactive)
SK-MEL-28
  GI50: > 100 µM (inactive)
NCI-H226
  GI50: > 100 µM (inactive)
PC-3
  GI50: > 100 µM (inactive)
NCI-H460
  GI50: > 100 µM (inactive)
HOP-62
  GI50: > 100 µM (inactive)
NCI-H522
  GI50: > 100 µM (inactive)
HOP-92
  GI50: > 100 µM (inactive)
U-251
  GI50: > 100 µM (inactive)
A549
  GI50: > 100 µM (inactive)
SW-620
  GI50: > 100 µM (inactive)
ACHN
  GI50: > 100 µM (inactive)
UO-31
  GI50: > 100 µM (inactive)
SNB-75
  GI50: 7.67 µM (inactive)
T47D
  GI50: > 100 µM (inactive)
UACC-257
  GI50: > 100 µM (inactive)
A498
  GI50: > 100 µM (inactive)
OVCAR-8
  GI50: > 100 µM (inactive)
LOX IMVI
  GI50: > 100 µM (inactive)
SF-295
  GI50: > 100 µM (inactive)
IGROV-1
  GI50: > 100 µM (inactive)
RXF 393
  GI50: > 100 µM (inactive)
M14
  GI50: > 100 µM (inactive)
SK-OV-3
  GI50: > 100 µM (inactive)
MOLT-4
  GI50: 20.4 µM (inactive)
SNB-19
  GI50: > 100 µM (inactive)
CAKI-1
  GI50: > 100 µM (inactive)
OVCAR-3
  GI50: > 100 µM (inactive)
SF-539
  GI50: > 100 µM (inactive)
Hs-578T
  GI50: > 100 µM (inactive)
SK-MEL-5
  GI50: > 100 µM (inactive)
MDA-MB-231
  GI50: > 100 µM (inactive)
NCI-H23
  GI50: > 100 µM (inactive)
EKVX
  GI50: > 100 µM (inactive)
K562
  GI50: 1.06 µM (active)
SN12C
  GI50: 30.1 µM (inactive)
HT-29
  GI50: > 100 µM (inactive)
TK-10
  GI50: > 100 µM (inactive)
COLO 205
  GI50: > 100 µM (inactive)
HCT-15
  GI50: > 100 µM
UACC-62
  GI50: > 100 µM (inactive)
BT-549
  GI50: > 100 µM (inactive)

## CCOC(=O)CCC(NC(=O)c1ccc(N2CCN(c3c(C)nc(N)nc3N)CC2)cc1)C(=O)OCC (stereo not drawn)
MCF7
  GI50: 0.685 µM (active)
Malme-3M
  GI50: > 100 µM (inactive)
HCT-116
  GI50: 0.0527 µM (active)
SK-MEL-2
  GI50: > 100 µM (inactive)
MDA-N
  GI50: 12.9 µM (inactive)
OVCAR-4
  GI50: > 100 µM (inactive)
DU-145
  GI50: > 100 µM (inactive)
SF-268
  GI50: 0.757 µM (active)
RPMI-8226
  GI50: 1.76 µM (inactive)
NCI/ADR-RES
  GI50: 7.43 µM (inactive)
OVCAR-5
  GI50: > 100 µM (inactive)
KM12
  GI50: 1.43 µM (inactive)
MDA-MB-435
  GI50: 0.251 µM (active)
786-0
  GI50: 0.0929 µM (active)
CCRF-CEM
  GI50: 0.109 µM (active)
SK-MEL-28
  GI50: > 31.6 µM (inactive)
NCI-H226
  GI50: 0.902 µM (active)
PC-3
  GI50: 0.0398 µM (active)
NCI-H460
  GI50: 6.53 µM (inactive)
NCI-H522
  GI50: 11 µM (inactive)
HOP-92
  GI50: 48.6 µM (inactive)
U-251
  GI50: 0.0845 µM (active)
A549
  GI50: 0.213 µM (active)
ACHN
  GI50: 0.122 µM (active)
UO-31
  GI50: > 100 µM (inactive)
SNB-75
  GI50: > 37.1 µM (inactive)
T47D
  GI50: > 88.9 µM (inactive)
UACC-257
  GI50: 15.6 µM (inactive)
A498
  GI50: 65.2 µM (inactive)
OVCAR-8
  GI50: 0.452 µM (active)
LOX IMVI
  GI50: 0.513 µM (active)
IGROV-1
  GI50: 0.113 µM (active)
M14
  GI50: 1.32 µM (inactive)
SK-OV-3
  GI50: > 100 µM (inactive)
MOLT-4
  GI50: 0.186 µM (active)
SNB-19
  GI50: 0.514 µM (active)
CAKI-1
  GI50: 2.52 µM (inactive)
OVCAR-3
  GI50: > 21.2 µM (inactive)
SF-539
  GI50: 16.2 µM (inactive)
Hs-578T
  GI50: > 100 µM (inactive)
SK-MEL-5
  GI50: 0.0923 µM (active)
MDA-MB-231
  GI50: > 100 µM (inactive)
NCI-H23
  GI50: 0.169 µM (active)
EKVX
  GI50: > 78.2 µM (inactive)
K562
  GI50: < 0.01 µM (active)
SN12C
  GI50: > 22.5 µM (inactive)
HT-29
  GI50: 3.15 µM (inactive)
TK-10
  GI50: > 100 µM (inactive)
COLO 205
  GI50: > 64.1 µM (inactive)
HCT-15
  GI50: 3.36 µM
UACC-62
  GI50: 0.165 µM (active)
HCC 2998
  GI50: 10.6 µM (inactive)
BT-549
  GI50: > 100 µM (inactive)

## COc1cc(C(=O)N(C(=S)OC23CC4CC(CC(C4)C2)C3)c2ccccc2)cc(OC)c1OC
MCF7
  GI50: 29.4 µM (inactive)
Malme-3M
  GI50: 29.1 µM (inactive)
HCT-116
  GI50: 16.1 µM (inactive)
SK-MEL-2
  GI50: 15.2 µM (inactive)
MDA-N
  GI50: 25.1 µM (inactive)
OVCAR-4
  GI50: 29.2 µM (inactive)
DU-145
  GI50: 58.9 µM (inactive)
SF-268
  GI50: 35.6 µM (inactive)
NCI/ADR-RES
  GI50: 22.8 µM (inactive)
OVCAR-5
  GI50: 26.5 µM (inactive)
KM12
  GI50: 26.5 µM (inactive)
MDA-MB-435
  GI50: 29.5 µM (inactive)
786-0
  GI50: 25.6 µM (inactive)
CCRF-CEM
  GI50: 2.89 µM (inactive)
SK-MEL-28
  GI50: 30.5 µM (inactive)
NCI-H226
  GI50: 21.5 µM (inactive)
PC-3
  GI50: 22.6 µM (inactive)
NCI-H460
  GI50: 27.1 µM (inactive)
HOP-62
  GI50: 43.7 µM (inactive)
NCI-H522
  GI50: 3.95 µM (inactive)
HOP-92
  GI50: 21 µM (inactive)
U-251
  GI50: 19 µM (inactive)
A549
  GI50: 26.1 µM (inactive)
SW-620
  GI50: 22.7 µM (inactive)
ACHN
  GI50: 29.6 µM (inactive)
UO-31
  GI50: 19.1 µM (inactive)
SNB-75
  GI50: 66.1 µM (inactive)
T47D
  GI50: 43.2 µM (inactive)
UACC-257
  GI50: 26.4 µM (inactive)
A498
  GI50: 24.9 µM (inactive)
OVCAR-8
  GI50: 27 µM (inactive)
SF-295
  GI50: 22.1 µM (inactive)
RXF 393
  GI50: 32.7 µM (inactive)
M14
  GI50: 18.9 µM (inactive)
SK-OV-3
  GI50: 25.8 µM (inactive)
MOLT-4
  GI50: 2.82 µM (inactive)
SNB-19
  GI50: 34.6 µM (inactive)
HL-60
  GI50: 9.73 µM (inactive)
CAKI-1
  GI50: 31.3 µM (inactive)
OVCAR-3
  GI50: 28.1 µM (inactive)
SF-539
  GI50: 31.3 µM (inactive)
Hs-578T
  GI50: 27.4 µM (inactive)
SK-MEL-5
  GI50: 16.1 µM (inactive)
MDA-MB-231
  GI50: 33.4 µM (inactive)
NCI-H23
  GI50: 28 µM (inactive)
EKVX
  GI50: 14.8 µM (inactive)
K562
  GI50: 2.75 µM (inactive)
SN12C
  GI50: 28.6 µM (inactive)
HT-29
  GI50: 17.7 µM (inactive)
TK-10
  GI50: 42.8 µM (inactive)
COLO 205
  GI50: 16.4 µM (inactive)
HCT-15
  GI50: 26.5 µM
UACC-62
  GI50: 22 µM (inactive)
HCC 2998
  GI50: 23.4 µM (inactive)
BT-549
  GI50: 33 µM (inactive)
